Reference: patent US20230203043A1, “NOVEL IMIDAZOPYRAZINE DERIVATIVES” (Hoffmann-La Roche Inc., priority 2020, published 2023)
Structures can show the parent of a compound that is named as a salt.

Tested on: Acinetobacter baumannii ATCC17961
Assay: Antimicrobial susceptibility testing: 90% growth inhibitory concentration (IC90) determination in Iso-Sensitest broth, OD600 growth
Type: cell-based
Conditions: Acinetobacter baumannii, ATCC17961, 16 h, read-out: A. baumannii ATCC 17961 IC90 (uM), strain ATCC 17961, OD600 growth over 16 h
Outline: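 Compounds were twofold serially diluted in DMSO across 10 points (e.g. 50 to 0.097 μM final) and inoculated at ~5×10^(5) CFU/ml. Plates incubated at 35±2° C, with OD600 read every 20 minutes over 16 h. IC90 was derived from growth inhibition during logarithmic growth.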

SMILES	IC90 [µM]
CCc1cc(Nc2nccn3c(-c4cn(CCF)nc4C(F)(F)F)cnc23)ccc1C(=O)NCCOCCN [Example 301, N-[2-(2-aminoethoxy)ethyl]-2-ethyl-4-[[3-[1-(2-fluoroethyl)-3-(trifluoromethyl)pyrazol-4-yl]imidazo[1,2-a]pyrazin-8-yl]amino]benzamide formate]	0.164
CCc1cc(Nc2nccn3c(-c4cn(CC(F)F)nc4C(F)(F)F)cnc23)ccc1C(=O)NCCOCCN [Example 302, N-[2-(2-aminoethoxy)ethyl]-4-[[3-[1-(2,2-difluoroethyl)-3-(trifluoromethyl)pyrazol-4-yl]imidazo[1,2-a]pyrazin-8-yl]amino]-2-ethylbenzamide formate]	0.17
CCc1cc(Nc2nccn3c(-c4cn(CC5CCC5)nc4C(F)(F)F)cnc23)ccc1C(=O)NCCOCCN [Example 303, N-[2-(2-aminoethoxy)ethyl]-4-[[3-[1-(cyclobutylmethyl)-3-(trifluoromethyl)pyrazol-4-yl]imidazo[1,2-a]pyrazin-8-yl]amino]-2-ethylbenzamide formate]	0.201
CCc1cc(Nc2nccn3c(-c4cn(CC5CC(F)(F)C5)nc4C(F)(F)F)cnc23)ccc1C(=O)NCCOCCN [Example 304, N-[2-(2-aminoethoxy)ethyl]-4-[[3-[1-[(3,3-difluorocyclobutyl)methyl]-3-(trifluoromethyl)pyrazol-4-yl]imidazo[1,2-a]pyrazin-8-yl]amino]-2-ethylbenzamide formate]	0.253
CCc1cc(Nc2nccn3c(-c4cn(CCO)nc4C(F)(F)F)cnc23)ccc1C(=O)NCCOCCN [Example 305, N-[2-(2-aminoethoxy)ethyl]-2-ethyl-4-[[3-[1-(2-hydroxyethyl)-3-(trifluoromethyl)pyrazol-4-yl]imidazo[1,2-a]pyrazin-8-yl]amino]benzamide formate]	0.406
CCc1cc(Nc2nccn3c(-c4cn(CC(C)(C)CO)nc4C(F)(F)F)cnc23)ccc1C(=O)NCCOCCN [Example 306, N-[2-(2-aminoethoxy)ethyl]-2-ethyl-4-[[3-[1-(3-hydroxy-2,2-dimethylpropyl)-3-(trifluoromethyl)pyrazol-4-yl]imidazo[1,2-a]pyrazin-8-yl]amino]benzamide formate]	0.483
CCc1cc(Nc2nccn3c(-c4cn(CC5CCOC5)nc4C(F)(F)F)cnc23)ccc1C(=O)NCCOCCN (stereo not drawn) [Example 307, N-[2-(2-aminoethoxy)ethyl]-2-ethyl-4-[[3-[1-(oxolan-3-ylmethyl)-3-(trifluoromethyl)pyrazol-4-yl]imidazo[1,2-a]pyrazin-8-yl]amino]benzamide formate]	0.514
CCc1cc(Nc2nccn3c(-c4cn(CCN(C)C)nc4C(F)(F)F)cnc23)ccc1C(=O)NCCOCCN [Example 309, N-[2-(2-aminoethoxy)ethyl]-4-[[3-[1-[2-(dimethylamino)ethyl]-3-(trifluoromethyl)pyrazol-4-yl]imidazo[1,2-a]pyrazin-8-yl]amino]-2-ethylbenzamide formate]	0.618
CCOC(=O)Cn1cc(-c2cnc3c(Nc4ccc(C(=O)NCCOCCN)c(CC)c4)nccn23)c(C(F)(F)F)n1 [Example 310, ethyl 2-[4-[8-[4-[2-(2-aminoethoxy)ethylcarbamoyl]-3-ethylanilino]imidazo [1,2-a]pyrazin-3-yl]-3-(trifluoromethyl)pyrazol-1-yl]acetate formate]	0.719
CCc1cc(Nc2nccn3c(-c4cn(CCC(C)(C)O)nc4C(F)(F)F)cnc23)ccc1C(=O)NCCOCCN [Example 311, N-[2-(2-aminoethoxy)ethyl]-2-ethyl-4-[[3-[1-(3-hydroxy-3-methylbutyl)-3-(trifluoromethyl)pyrazol-4-yl]imidazo[1,2-a]pyrazin-8-yl]amino]benzamide formate]	0.769
CCc1cc(Nc2nccn3c(-c4cn(CCCO)nc4C(F)(F)F)cnc23)ccc1C(=O)NCCOCCN [Example 312, N-[2-(2-aminoethoxy)ethyl]-2-ethyl-4-[[3-[1-(3-hydroxypropyl)-3-(trifluoromethyl)pyrazol-4-yl]imidazo[1,2-a]pyrazin-8-yl]amino]benzamide formate]	0.839
CCc1cc(Nc2nccn3c(-c4cn(CC(O)CO)nc4C(F)(F)F)cnc23)ccc1C(=O)NCCOCCN (stereo not drawn) [Example 314, N-[2-(2-aminoethoxy)ethyl]-4-[[3-[1-(2,3-dihydroxypropyl)-3-(trifluoromethyl)pyrazol-4-yl]imidazo[1,2-a]pyrazin-8-yl]amino]-2-ethylbenzamide formate]	1.43
CCc1cc(Nc2nccn3c(-c4cn(CC(O)CCO)nc4C(F)(F)F)cnc23)ccc1C(=O)NCCOCCN (stereo not drawn) [Example 315, N-[2-(2-aminoethoxy)ethyl]-4-[[3-[1-(2,4-dihydroxybutyl)-3-(trifluoromethyl)pyrazol-4-yl]imidazo[1,2-a]pyrazin-8-yl]amino]-2-ethylbenzamide formate]	1.46
CCc1cc(Nc2nccn3c(-c4cn(CC(N)=O)nc4C(F)(F)F)cnc23)ccc1C(=O)NCCOCCN [Example 316, N-[2-(2-aminoethoxy)ethyl]-4-[[3-[1-(2-amino-2-oxoethyl)-3-(trifluoromethyl)pyrazol-4-yl]imidazo[1,2-a]pyrazin-8-yl]amino]-2-ethylbenzamide formate]	1.52
CCc1cc(Nc2nccn3c(-c4cn(CCN5CCOCC5)nc4C(F)(F)F)cnc23)ccc1C(=O)NCCOCCN [Example 317, N-[2-(2-aminoethoxy)ethyl]-2-ethyl-4-[[3-[1-(2-morpholin-4-ylethyl)-3-(trifluoromethyl)pyrazol-4-yl]imidazo[1,2-a]pyrazin-8-yl]amino]benzamide formate]	1.88

Same assay, conditions: Acinetobacter baumannii, ATCC17961, 16 h, strain ATCC 17961, OD600 growth over 16 h, read-out: A. baumannii ATCC 17961 IC90

IC90 [µM]	SMILES
0.699	NCCC(=O)NCCNC(=O)c1ccc(Nc2nccn3c(-c4c[nH]nc4C(F)(F)F)cnc23)cc1Cl [Example 299, N-[2-(3-aminopropanoylamino)ethyl]-2-chloro-4-[[3-[3-(trifluoromethyl)-1H-pyrazol-4-yl]imidazo[1,2-a]pyrazin-8-yl]amino]benzamide]
0.905	NCCCC(=O)NCCNC(=O)c1ccc(Nc2nccn3c(-c4c[nH]nc4C(F)(F)F)cnc23)cc1Cl [Example 300, N-[2-(4-aminobutanoylamino)ethyl]-2-chloro-4-[[3-[3-(trifluoromethyl)-1H-pyrazol-4-yl]imidazo[1,2-a]pyrazin-8-yl]amino]benzamide]
0.525	O=C(N[C@@H]1CCN(C(=O)[C@@H]2C[C@@H](O)CN2)C1)c1ccc(Nc2nccn3c(-c4c[nH]nc4C(F)(F)F)cnc23)cc1Cl [Example 308, 2-chloro-N-[(3R)-1-[(2S,4R)-4-hydroxypyrrolidine-2-carbonyl]pyrrolidine-3-yl]-4-[[3-[3-(trifluoromethyl)-1H-pyrazol-4-yl]imidazo[1,2-a]pyrazin-8-yl]amino]benzamide]
0.995	O=C(N[C@H]1CCN(C(=O)[C@@H]2C[C@@H](O)CN2)C1)c1ccc(Nc2nccn3c(-c4c[nH]nc4C(F)(F)F)cnc23)cc1Cl [Example 313, 2-chloro-N-[(3S)-1-[(2S,4R)-4-hydroxypyrrolidine-2-carbonyl]pyrrolidin-3-yl]-4-[[3-[3-(trifluoromethyl)-1H-pyrazol-4-yl]imidazo[1,2-a]pyrazin-8-yl]amino]benzamide]
0.411	NC1CCN(C(=O)c2ccc(Nc3nccn4c(-c5c[nH]nc5C(F)(F)F)cnc34)cc2Cl)CC1 [Example 318, (4-aminopiperidin-1-yl)-[2-chloro-4-[[3-[3-(trifluoromethyl)-1H-pyrazol-4-yl]imidazo[1,2-a]pyrazin-8-yl]amino]phenyl]methanone]
0.438	CCc1cc(Nc2nccn3c(-c4c[nH]nc4C(F)(F)F)cnc23)ccc1C(=O)NCCCCCN [Example 319, N-(5-aminopentyl)-2-ethyl-4-[[3-[3-(trifluoromethyl)-1H-pyrazol-4-yl]imidazo[1,2-a]pyrazin-8-yl]amino]benzamide hydrochloride]
0.705	N[C@H]1CCN(C(=O)c2ccc(Nc3nccn4c(-c5c[nH]nc5C(F)(F)F)cnc34)cc2Cl)C1 [Example 320, [(3S)-3-aminopyrrolidin-1-yl]-[2-chloro-4-[[3-[3-(trifluoromethyl)-1H-pyrazol-4-yl]imidazo[1,2-a]pyrazin-8-yl]amino]phenyl]methanone]
0.901	C[C@H]1CN(C(=O)c2ccc(Nc3nccn4c(-c5c[nH]nc5C(F)(F)F)cnc34)cc2Cl)CCN1 [Example 321, [2-chloro-4-[[3-[3-(trifluoromethyl)-1H-pyrazol-4-yl]imidazo[1,2-a]pyrazin-8-yl]amino]phenyl]-[(3S)-3-methylpiperazin-1-yl]methanone]
0.97	CN(CCN)C(=O)c1ccc(Nc2nccn3c(-c4c[nH]nc4C(F)(F)F)cnc23)cc1Cl [Example 322, N-(2-aminoethyl)-2-chloro-N-methyl-4-[[3-[3-(trifluoromethyl)-1H-pyrazol-4-yl]imidazo[1,2-a]pyrazin-8-yl]amino]benzamide]
1.05	C[C@@H]1CN(C(=O)c2ccc(Nc3nccn4c(-c5c[nH]nc5C(F)(F)F)cnc34)cc2Cl)CCN1 [Example 323, [2-chloro-4-[[3-[3-(trifluoromethyl)-1H-pyrazol-4-yl]imidazo[1,2-a]pyrazin-8-yl]amino]phenyl]-[(3R)-3-methylpiperazin-1-yl]methanone]
1.23	N[C@@H]1CCN(C(=O)c2ccc(Nc3nccn4c(-c5c[nH]nc5C(F)(F)F)cnc34)cc2Cl)C1 [Example 324, [(3R)-3-aminopyrrolidin-1-yl]-[2-chloro-4-[[3-[3-(trifluoromethyl)-1H-pyrazol-4-yl]imidazo[1,2-a]pyrazin-8-yl]amino]phenyl]methanone]
2.02	C[C@H]1CNCCN1C(=O)c1ccc(Nc2nccn3c(-c4c[nH]nc4C(F)(F)F)cnc23)cc1Cl [Example 325, [2-chloro-4-[[3-[3-(trifluoromethyl)-1H-pyrazol-4-yl]imidazo[1,2-a]pyrazin-8-yl]amino]phenyl]-[(2S)-2-methylpiperazin-1-yl]methanone]
